In the NIST ThermoML archive (doi:10.1021/je060271a):

Settings: 343.15 K, Liquid, Vibrating tube method

CCCCCCCC(=O)OCC(COC(=O)CCCCCCC)(COC(=O)CCCCCCC)COC(=O)CCCCCCC [pentaerythritol tetraoctanoate]
Settings | mass density [kg/m3]
22002 kPa | 941.5
22028 kPa | 941.4
22054 kPa | 941.3
22085 kPa | 941.4
22111 kPa | 941.4
22142 kPa | 941.5
22168 kPa | 941.4
22195 kPa | 941.6
22221 kPa | 941.4
22248 kPa | 941.5
22280 kPa | 941.6
22307 kPa | 941.6
22338 kPa | 941.5
22365 kPa | 941.8
22392 kPa | 941.7
22424 kPa | 941.7
22451 kPa | 941.7
22478 kPa | 941.5
22510 kPa | 941.7
22537 kPa | 941.7
22564 kPa | 941.8
22599 kPa | 941.9
22626 kPa | 941.8
22654 kPa | 941.9
22682 kPa | 941.9
22709 kPa | 941.7
22742 kPa | 941.8
22770 kPa | 941.8
22798 kPa | 941.8
22831 kPa | 942
22858 kPa | 941.8
22892 kPa | 941.9
22920 kPa | 941.9
22949 kPa | 942
23008 kPa | 942
23042 kPa | 941.9
23070 kPa | 942.1
23098 kPa | 942.1
23132 kPa | 942.1
23161 kPa | 942.1
23190 kPa | 942.1
23224 kPa | 942.1
23253 kPa | 942.1
23281 kPa | 942.2
23316 kPa | 942.2
23344 kPa | 942.1
23374 kPa | 942.3
23409 kPa | 942.2
23438 kPa | 942.4
23468 kPa | 942.1
23497 kPa | 942.3
23532 kPa | 942.2
23562 kPa | 942.4
23597 kPa | 942.4
23627 kPa | 942.3
23656 kPa | 942.5
23686 kPa | 942.4
23722 kPa | 942.5
23753 kPa | 942.5
23777 kPa | 942.5
23819 kPa | 942.5
23849 kPa | 942.6
23886 kPa | 942.6
23916 kPa | 942.5
23946 kPa | 942.5
23984 kPa | 942.5
24014 kPa | 942.6
24045 kPa | 942.8
24076 kPa | 942.6
24113 kPa | 942.7
24144 kPa | 942.6
24182 kPa | 942.7
24245 kPa | 942.8
24283 kPa | 942.8
24314 kPa | 942.8
24345 kPa | 942.8
24377 kPa | 942.9
24415 kPa | 942.8
24447 kPa | 942.9
24480 kPa | 942.9
24518 kPa | 943
24550 kPa | 942.9
24589 kPa | 943
24622 kPa | 943.1
24655 kPa | 943.1
24688 kPa | 943.1
24721 kPa | 943
24761 kPa | 943.1
24794 kPa | 943.1
24828 kPa | 943.1
24867 kPa | 943.1
24894 kPa | 943.3
24934 kPa | 943.3
24961 kPa | 943.1
24994 kPa | 943.2
25028 kPa | 943.2
25069 kPa | 943.3
25097 kPa | 943.2
25138 kPa | 943.4
25185 kPa | 943.5
25226 kPa | 943.3
25260 kPa | 943.3
25294 kPa | 943.5
25335 kPa | 943.5
25370 kPa | 943.5
25404 kPa | 943.5
25445 kPa | 943.6
25480 kPa | 943.5
25523 kPa | 943.6
25553 kPa | 943.7
25596 kPa | 943.5
25632 kPa | 943.8
25667 kPa | 943.6
25703 kPa | 943.7
25746 kPa | 943.8
25781 kPa | 943.7
25824 kPa | 943.7
25860 kPa | 943.7
25896 kPa | 943.8
25933 kPa | 944
25977 kPa | 943.9
26014 kPa | 943.9
26054 kPa | 943.9
26091 kPa | 943.9
26135 kPa | 943.9
26172 kPa | 944
26210 kPa | 944.2
26247 kPa | 944.1
26292 kPa | 944.1
26329 kPa | 944.1
26367 kPa | 944.2
26412 kPa | 944.1
26449 kPa | 944.1
26495 kPa | 944.1
26534 kPa | 944.1
26573 kPa | 944
26612 kPa | 944.2
26696 kPa | 944.4
26735 kPa | 944.4
26781 kPa | 944.3
26820 kPa | 944.4
26859 kPa | 944.4
26906 kPa | 944.4
26945 kPa | 944.4
26985 kPa | 944.4
27032 kPa | 944.6
27072 kPa | 944.4
27113 kPa | 944.7
